This note sets out measurements from US7722893B2, “Use of substitute 2,4-bis (alkylamino) pyrimidines or quinzolines as antimicrobials” (Ciba Specialty Chemicals Corporation, priority 2003, dated 2010).

Assay [1] concerns Streptococcus mutans ATCC 33402. Briefly: MIC of a broadened organism spectrum: oral organisms. Type of assay: cell-based. To be noted: Streptococcus mutans, ATCC33402; S. mutans ATCC 33402; 24 hours aerobic with 10% CO2; read-out: minimum inhibiting concentration MIC, oral organisms. From the text:
(§1) Determination of the Minimum Inhibiting Concentration MIC (ppm) of a Broadened Organism Spectrum: Oral Organisms
(§2) • Medium: thioglycolate bouillon with hemin and menadione Columbia bouillon with hemin and menadione for P. gingivalis and P. nigrescens • Dilution medium: the appropriate amount of the substances was pipetted directly into the medium. • Test organisms: Actinobacillus actinomycetemcomitans ATCC 43718 • Streptococcus gordonil ATCC 10558 • Streptococcus mutans ATCC 33402 • Actinomyces viscosus ATCC 43146 • Fusobacterium nucleatum subsp. polymorphum ATCC 10953 • Porphyromonas gingivalis ATCC 33277 • Prevotella nigrescens ATCC 33563 • Incubation: 7-10 days at 37° C anaerobic, or 24 hours aerobic with 10% CO2 for Streptococci and A. actinomycetemcomitans • Test solution: Stock solutions of all the test substances in ethanol at 1500 ppm (w/w) are used. Test Principle:
(§3) Bacteria are removed from blood agar plates using cotton wool buds and a suitable optical density (McFarland 0.5) is adjusted in an appropriate medium; that solution is used undiluted for F. nucleatum and P. nigrescens, and in a dilution of 1:20 for the other strains. 0.1 ml of bacterial culture is added per 2 ml of active ingredient solution and incubation is carried out as described above.

Assay [2] has as its system Actinomyces viscosus ATCC 43146. The description is as above. The class given is cell-based. The note with it: Actinomyces viscosus, ATCC43146; A. viscosus ATCC 43146; 7-10 days at 37° C anaerobic; read-out: minimum inhibiting concentration MIC, oral organisms.
Text: as §1, §2, §3

The subject of assay [3] is Fusobacterium nucleatum subsp. polymorphum ATCC 10953. The assay is described as above. To be noted: Fusobacterium nucleatum, ATCC10953; F. nucleatum subsp. polymorphum ATCC 10953; 7-10 days at 37° C anaerobic; read-out: minimum inhibiting concentration MIC, oral organisms. The class given is cell-based.
Text: as §1, §2, §3

Assay [4] relates to Prevotella nigrescens ATCC 33563. Described as above. Type of assay: cell-based. The note with it: Prevotella nigrescens, ATCC33563; P. nigrescens ATCC 33563; Columbia bouillon, 7-10 days at 37° C anaerobic; read-out: minimum inhibiting concentration MIC, oral organisms.
Text: as §1, §2, §3

Assay [5] relates to Actinobacillus actinomycetemcomitans ATCC 43718. The description is as above. The note with it: Aggregatibacter actinomycetemcomitans, ATCC43718; A. actinomycetemcomitans ATCC 43718; 24 hours aerobic with 10% CO2; read-out: minimum inhibiting concentration MIC, oral organisms. The class given is cell-based.
Text: as §1, §2, §3

A further assay relates to S. gordonii ATCC 10558. Described as above. Type of assay: cell-based, Streptococcus gordonil. To be noted: Streptococcus gordonii, ATCC10558, 24 hours aerobic with 10% CO2, read-out: minimum inhibiting concentration MIC, oral organisms.
Text: as §1, §2, §3

For assay [6], the system named is Propionibacterium acnes ATCC 6919. Briefly: MIC of a broadened organism spectrum (agar). Type of assay: cell-based. To be noted: Cutibacterium acnes, ATCC6919, 72 h, 3 days incubation under anaerobic conditions, read-out: minimum inhibiting concentration MIC. The text has this: (§4) Determination of the Minimum Inhibiting Concentration MIC [ppm] of a Broadened Organism Spectrum
(§5) • Medium: Casein/soybean flour peptone agar (Merck) • *Sabouraud 4% glucose agar (Merck) • Dilution medium: sterile 0.85% NaCl solution • Test organisms: Staphylococcus aureus ATCC 6853 and 9144 • Staphylococcus epidermidis ATCC 12228 • C. xerosis ATCC 373 ** • C. minutissimum ATCC 23348 • Proplonibacterium acnes ATCC 6919 • Escherichia coli ATCC 10536 and NCTC 8196 • Proteus vulgaris ATCC 6896 • Klebsiella pneumoniae ATCC 4352 • Salmonella choleraesuis ATCC 9184 • Pseudomonas aeruginosa ATCC 15442 • *Candida albicans ATCC 10231 • *Aspergillus niger ATCC 6275 • Incubation: 24 hours at 37° C. • *3 days at 28° C. • Test solution: 1% stock solutions of all the test substances in a suitable solvent are prepared and diluted in serial dilutions (1:10, 1:100 and 1:1000 dilution), where possible diluted to such an extent that the end concentrations in agar are from 500 ppm to 10 ppm. Test principle:
(§6) 0.3 ml of the dilution stage in question is mixed with 15 ml of still-liquid nutrient medium.
(§7) When the nutrient substrate has solidified, 10 μl portions of a suitable organism dilution of the test strains in 0.85% NaCl solution are spotted onto the agar medium: […]

The subject of assay [7] is Staphylococcus aureus ATCC 9144. Description: MIC of a broadened organism spectrum (agar). The class given is cell-based. The note with it: ATCC9144, 24 hours at 37° C., read-out: minimum inhibiting concentration MIC.
Text: as §4, §5, §6, §7

Assay [8] has as its system Proteus vulgaris ATCC 6896. Description: MIC of a broadened organism spectrum (agar). Type of assay: cell-based. The note with it: ATCC6896, 24 hours at 37° C., read-out: minimum inhibiting concentration MIC.
Text: as §4, §5, §6, §7

Assay [9] deals with Salmonella choleraesuis ATCC 9184. Briefly: MIC of a broadened organism spectrum (agar). Type of assay: cell-based. The note with it: Salmonella enterica, 24 hours at 37° C., read-out: minimum inhibiting concentration MIC.
Text: as §4, §5, §6, §7

Assay [10] deals with Escherichia coli NCTC 8196. Briefly: MIC of a broadened organism spectrum (agar). The class given is cell-based. To be noted: NCTC8196, 24 hours at 37° C., read-out: minimum inhibiting concentration MIC.
Text: as §4, §5, §6, §7

Assay [11] relates to Staphylococcus aureus ATCC 6538. Briefly: MIC of a broadened organism spectrum (agar). To be noted: ATCC6538, 24 hours at 37° C., read-out: minimum inhibiting concentration MIC. The class given is cell-based.
Text: as §4, §5, §6, §7

The subject of the next assay is C. xerosis ATCC 373. Briefly: MIC of a broadened organism spectrum (agar). The class given is cell-based. The note with it: Corynebacterium xerosis, ATCC373, 72 h, 3 days incubation, read-out: minimum inhibiting concentration MIC.
Text: as §4, §5, §6, §7

Assay [12] deals with Candida albicans ATCC 10231. Description: MIC of a broadened organism spectrum (agar). The class given is cell-based. To be noted: ATCC10231, 72 h, Sabouraud 4% glucose agar, 3 days at 28° C., read-out: minimum inhibiting concentration MIC.
Text: as §4, §5, §6, §7

The subject of assay [13] is C. minutissimum ATCC 23348. Description: MIC of a broadened organism spectrum (agar). The class given is cell-based. To be noted: Corynebacterium minutissimum, ATCC23348, 72 h, 3 days incubation (Table 3a), read-out: minimum inhibiting concentration MIC.
Text: as §4, §5, §6, §7

Assay [14] relates to Staphylococcus epidermidis ATCC 12228. Description: MIC of a broadened organism spectrum (agar). Type of assay: cell-based. The note with it: ATCC12228, 24 hours at 37° C., read-out: minimum inhibiting concentration MIC.
Text: as §4, §5, §6, §7

Assay [15] has as its system Aspergillus niger ATCC 6275. Briefly: MIC of a broadened organism spectrum (agar). The note with it: ATCC6275, 72 h, Sabouraud 4% glucose agar, 3 days at 28° C., read-out: minimum inhibiting concentration MIC. The class given is cell-based.
Text: as §4, §5, §6, §7

Assay [16] concerns Pseudomonas aeruginosa ATCC 15442. Briefly: MIC of a broadened organism spectrum (agar). The class given is cell-based. The note with it: ATCC15442, 24 hours at 37° C., read-out: minimum inhibiting concentration MIC.
Text: as §4, §5, §6, §7

Assay [17] concerns Escherichia coli ATCC 10536. Description: MIC of a broadened organism spectrum (agar). The class given is cell-based. To be noted: ATCC10536, 24 hours at 37° C., read-out: minimum inhibiting concentration MIC.
Text: as §4, §5, §6, §7

Assay [18] concerns Klebsiella pneumoniae ATCC 4352. Description: MIC of a broadened organism spectrum (agar). The class given is cell-based. To be noted: ATCC4352, 24 hours at 37° C., read-out: minimum inhibiting concentration MIC.
Text: as §4, §5, §6, §7

A further assay deals with P. gingivalis ATCC 3277. Briefly: MIC of a broadened organism spectrum: oral organisms. Type of assay: cell-based, Porphyromonas gingivalis. To be noted: Porphyromonas gingivalis, ATCC3277, Columbia bouillon, 7-10 days at 37° C anaerobic, read-out: minimum inhibiting concentration MIC, oral organisms.
Text: as §1, §2, §3

With `CCCCCCCCNc1nc(C)c(CCCCCC)c(NCCOCCOCCN)n1` [PY55], the MIC came out at 7.5 µg/mL in [1]; 3.8 µg/mL in assay [2]; 7.5 µg/mL in [3]; 3.8 µg/mL in assay [4]; 15 µg/mL in assay [5]; 3.8 µg/mL in the assay on S. gordonii ATCC 10558. Further, the MIC in assay [6] is 3.9 µg/mL; in assay [7] it was 3.9 µg/mL; in assay [8] it was over 500 µg/mL; in assay [9], 7.8 µg/mL; in [10], 7.8 µg/mL; in assay [11], 7.8 µg/mL. In addition, the MIC in the assay with C. xerosis ATCC 373 was 3.9 µg/mL; in assay [12], 125 µg/mL; in [13], 3.9 µg/mL; in assay [14], 7.8 µg/mL; in [15], 500 µg/mL; in assay [16], over 500 µg/mL. The MIC in [17] worked out at 7.8 µg/mL; in assay [18], 15.6 µg/mL; in the assay on P. gingivalis ATCC 3277, 3.8 µg/mL.
